Measurements taken from patent publication US4594340A, “25,26-dehydro-1α,24R-dihydroxycholecalciferol and 25,26-dehydro-1α,24S-dihydroxycholecalciferol and the epimeric mixture” (Hoffmann-La Roche Inc., priority 1984, dated 1986).

Assays:
[1] = Antirachitogenic increase in tibia ash in chicks on vitamin D-deficient diet; assay type: in vivo, chick (White Leghorn cockerels); conditions: 27 ng, orally, 21 consecutive days
Protocol: **Oneday-old White Leghorn cockerels were placed on a vitamin Ddeficient
diet which contained 1% calcium and 0.7% phosphorus and were housed under
ultravioletfree lighting (General Electric F40G0 gold fluorescent lights)
The test compound was dissolved in propylene glycol and administered
orally in a volume of 0.2 ml/day for 21 consecutive days. Controls were
treated with vehicle alone. Chicks were autopsied on the day after the […]

HL-60 cells = test: Differentiation of HL-60 cells by nitroblue tetrazolium (NBT) reduction; assay type: cell-based, human (patient); conditions: Homo sapiens, 96 h; HL-60 cells, NBT test; read-out: HL-60 Test Differentiation NBT Test ED50
Protocol: Cultures of HL-60 cells were established in the absence (control) or presence of various concentrations of the test compound. […] Proliferation was assessed by directly enumerating the increased number of tumor cells resulting from incubation. Viability was determined by dye exclusion technique to learn whether any of the compounds were lethal to cultured HL-60 cells. Cellular differentiation was evaluated by determining the number of cells which had acquired the enzymes necessary to support a respiratory burst and the functional ability to phagocytose (bind/internalize) particulate material from their environment; both activities being characteristic of mature macrophages and granulocytes,
Experimental compounds were dissolved in sufficient ethanol to yield stock solutions of 1×10^-2 molar. Reduced lighting was employed when working with compounds and stock solutions were stored in the dark at -20° in an argon atmosphere. Compounds were diluted with tissue culture medium and added to flasks containing HL-60 cells to achieve the final concentrations described in each experiment.
The promyelocytic (HL-60) tumor cell line was derived from a patient with acute promyelocytic leukemia. HL-60 cells were maintained in liquid culture by serial weekly passage in tissue culture medium. In any experiment, three replicate flasks were incubated without compound (control) or in the presence of varying concentrations of compound. […]
Quantitation of differentiated cells was done by the biochemical method of nitroblue tetrazolium (NBT) reduction. Sufficient cells were pooled from replicate cultures, centrifuged at 220×g, washed once with serum-free tissue culture medium, and resuspended to 1×10^6 cells per ml in Ca^++ --Mg^++ -deficient phosphate buffered saline (prepared by supplementing Ca^++ --Mg^++ -free phosphate buffered saline (PBS) to 10% v/v with heat-inactivated fetal bovine serum). Nitroblue tetrazolium was dissolved at 1 mg per ml in Ca^++ --Mg^++ -deficient PBS with gentle heating and mixing. Tetradecanoyl phorbol acetate (TPA) was dissolved at 1 mg per ml in ethanol and stored at -20° C. Just prior to use, a working solution of TPA was prepared by diluting the stock concentration 100-fold with Ca^++ --Mg^++ -deficient PBS. The test was done in 12×75 mm tubes by adding 0.5 ml Ca^++ --Mg^++ -deficient PBS, 1.0 ml of HL-60 cells, 0.5 ml of NBT solution, and 0.02 ml of the working TPA solution. After mixing, the tubes were incubated in a 37° water bath for 25 minutes then transferred to ice. Undifferentiated and differentiated cells present in any sample were determined microscopically by surveying 200-400 cells per sample or by cytofluorograph by surveying greater than 30,000 cells. Cells without pigmented granules (clear cells) were judged to be undifferentiated while those containing greater than 3 blue-black formazan granules were scored as differentiated. […] Results are expressed as the percentage of differentiated cells present in any sample as calculated according to the formula: [formula]

## C=C1/C(=C\C=C2/CCC[C@]3(C)[C@@H]([C@H](C)CCCC(C)(C)O)CC[C@@H]23)C[C@@H](O)C[C@@H]1O [1α,25-Dihydroxycholecalciferol, reference compound]
[1]
  Antirachitogenic Increase in Tibia Ash in Chicks: 61%
HL-60 cells
  EC50: 12 nM
